Measurements reported in patent publication US20210309860A1, “ANTHRAQUINONIC DERIVATIVES AND THEIR USE AS COLOURING AGENTS” (PILI, priority 2018, published 2021).

Assays:
[1] = UV-Visible analysis in methanol; assay type: physicochemical; details: for Colour: methanol solution; for log ε / λmax visible / L1/2: methanol; for log ε: log of average molar extinction coefficient, characterizes the strength of the colour; for λmax visible: maximum absorption in visible spectra 400-800 nm, 1 cm quartz cuvette, characterizes the colour; for L1/2: width measured at A/2, characterizes the brilliance of the colour
Experimental: UV-Visible analysis was carried on a Genesys10 UV photometer and recorded with the help of “VisionLite Scan” software. For each molecule, a certain amount was weighed with a precision balance and fully dissolved (under sonication if necessary) in methanol to obtain a mother solution at 1 mg/mL. Serial dilutions were performed to obtain samples in a range from 0.0025 mg/mL to 0.5 mg/mL. Samples were analyzed from 190 to 800 nm in a 1 cm quartz cuvette. For each concentration, the wavelength of maximum absorption in the visible spectra (400-800 nm) was recorded with a precision of 2 nm, and the width was measured at A/2. Additionally, molar extinction coefficient ε was calculated for each sample and the log of the average value presented. λmax visible characterizes the colour, L1/2 characterizes the brilliance of the colour, ε characterizes the strength of the colour.

[2] = Experimental log P octanol/water by UV-Vis spectroscopy assay; details: octanol/water (1:1), pH 7
[3] = pH 7

Compound	Colour [1]	log ε [1]	λmax visible [1]	L1/2 [1]	logP at 6 h [2]	Measured logP [3]
Cc1cc(O)c(N)c2c1C(=O)c1c(O)cccc1C2=O [Compound 17b, 1-amino-2,5-dihydroxy-4-methyl-anthracene-9,10-dione]	Purple	3.41	498 nm	100 nm		
Cc1cc(O)c2c(c1)C(=O)c1cccc(O)c1C2=O [Chrysophanic acid]					4	
COc1cc(C)c2c(c1)C(=O)c1cccc(O)c1C2=O [Compound 6, 8-hydroxy-3-methoxy-1-methyl-anthracene-9,10-dione, reference compound]	Stronger yellow	3.62	406 nm	81 nm		
Cc1c(C(=O)O)c(O)c(N)c2c1C(=O)c1c(O)ccc(N)c1C2=O [Compound 19b, 4,5-diamino-3,8-dihydroxy-1-methyl-9,10-dioxo-anthracene-2-carboxylic acid]	Purple	3.25	518 nm	106 nm		
Cc1c(C(=O)O)c(O)cc2c1C(=O)c1c(O)cccc1C2=O [Compound 7, 3,8-dihydroxy-1-methyl-9,10-dioxo-anthracene-2-carboxylic acid, reference compound]	Yellow	3.9	408 nm	86 nm		
O=C1c2ccccc2C(=O)c2c1ccc(O)c2O [Alizarin]					2.8	

Results, then the compound that gave them:

Colour [1]	log ε [1]	λmax visible [1]	L1/2 [1]	logP at 6 h [2]	Measured logP [3]	Compound
Orange	2.44	452 nm	142 nm			Cc1cc(N)cc2c1C(=O)c1c(O)cccc1C2=O [Compound 8, 3-amino-8-hydroxy-1-methyl-anthracene-9,10-dione]
Purple/red purplish	2.72	496 nm	152 nm			Cc1cc(Nc2ccccc2)cc2c1C(=O)c1c(Nc3ccccc3)cccc1C2=O [Compound 10, 3,8-dianilino-1-methyl-anthracene-9,10-dione]
Purple	2.8	510 nm	128 nm			CC(=O)Nc1cccc(Nc2cc(C)c3c(c2)C(=O)c2cccc(Nc4cccc(NC(C)=O)c4)c2C3=O)c1 [Compound 11, N-(3-((6-(3-acetamidoanilino)-8-methyl-9,10-dioxo-1-anthryl)amino)phenyl) Acetamide]
Red-purple	3.12	508 nm	104 nm			Cc1ccc(S(=O)(=O)Oc2cccc3c2C(=O)c2c(C)cc(Nc4ccccc4)cc2C3=O)cc1 [Compound 14, (6-anilino-8-methyl-9,10-dioxo-1-anthryl)-4-methylbenzenesulfonate]
					3.7	Quinizarin
“Carmine-like” red	2.25	480 nm	104 nm			Cc1cc(Nc2ccccc2)cc2c1C(=O)c1c(O)cccc1C2=O [Compound 9, 3-anilino-8-hydroxy-1-methyl-anthracene-9,10-dione]
				3.4		O=C1c2cccc(O)c2C(=O)c2c(O)cccc21 [1,8-dihydroxy anthraquinone]
Yellow	3.5	408 nm	94 nm	3.2		Cc1cc(O)cc2c1C(=O)c1c(O)cccc1C2=O [Compound 5, 3,8-dihydroxy-1-methyl-anthracene-9,10-dione, reference compound]
Purple	2.46	524 nm	94 nm			Cc1cc(NC2CCCCC2)cc2c1C(=O)c1c(NC3CCCCC3)cccc1C2=O [Compound 12, 3,8-bis(cyclohexylamino)-1-methyl-anthracene-9,10-dione]
